One assay deals with Mino cells. The assay can be described thus: Antiproliferative effect, MTS cell viability assay, Mino cells. Format: cell-based. As to conditions: Mino mantle cell lymphoma cells, read-out: IC50 (anti-proliferation) Mino cells. Summed up: (§1)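 Mino and JeKo-1 mantle B-cell lymphoma lines were exposed to compound at 0, 0.001, 0.01, 0.1, 1 and 10 μM for 72 h. Viability was read by MTS reduction to formazan, measured as absorbance at 490 nm.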

A further assay relates to JeKo-1 cells. In words: Antiproliferative effect, MTS cell viability assay, JeKo-1 cells. Format: cell-based. As to conditions: JeKo-1 mantle cell lymphoma cells, read-out: IC50 (anti-proliferation) JeKO-1 cells. The essentials:
as §1

The target of the next assay is BTK (Homo sapiens, UniProt Q06187). In words: Degradation of BTK protein in Namalwa cells (Western blot; DC50, Dmax).
Sequence of BTK (Q06187 whole entry): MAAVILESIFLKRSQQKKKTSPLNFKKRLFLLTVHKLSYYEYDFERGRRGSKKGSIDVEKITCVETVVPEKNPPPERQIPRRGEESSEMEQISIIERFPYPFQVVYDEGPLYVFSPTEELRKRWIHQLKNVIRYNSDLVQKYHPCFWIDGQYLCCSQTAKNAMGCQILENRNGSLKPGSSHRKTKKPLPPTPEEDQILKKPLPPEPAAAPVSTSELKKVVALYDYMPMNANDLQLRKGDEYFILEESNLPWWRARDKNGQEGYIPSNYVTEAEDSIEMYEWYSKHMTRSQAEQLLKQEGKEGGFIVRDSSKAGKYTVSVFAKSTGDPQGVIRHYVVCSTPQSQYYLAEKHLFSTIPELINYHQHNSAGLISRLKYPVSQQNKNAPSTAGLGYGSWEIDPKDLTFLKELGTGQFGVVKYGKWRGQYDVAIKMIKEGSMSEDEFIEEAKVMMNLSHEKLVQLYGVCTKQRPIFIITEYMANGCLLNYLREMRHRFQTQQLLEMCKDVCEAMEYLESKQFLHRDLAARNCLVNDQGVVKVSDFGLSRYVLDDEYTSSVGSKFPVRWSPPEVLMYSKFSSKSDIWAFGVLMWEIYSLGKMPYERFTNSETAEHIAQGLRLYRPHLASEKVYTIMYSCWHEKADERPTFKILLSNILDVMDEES
[1] abbreviates: BTK degradation, cell line not given.
The mark [2] stands for this setting: read-out: DC50 (BTK degradation), concentration giving 50% reduction of BTK expression level, cell line not given.
Setting [3] is: read-out: Dmax (BTK degradation).

Like-named read-outs stand apart in the source and are kept apart here.

On to `Nc1ncnc2c1c(-c1ccc(Oc3ccccc3)cc1)nn2C1CCN(C2CCN(C(=O)N3CCC(CCCC4CCN(c5ccc6c(c5)CN(C5CCC(=O)NC5=O)C6=O)CC4)CC3)CC2)CC1` (stereo not shown) [Compound 266, 3-(5-(4-(3-(1-(4-(4-amino-3-(4-phenoxyphenyl)-1H-pyrazolo[3,4-d]pyrimidin-1-yl)-[1,4′-bipiperidine]-1′-carbonyl)piperidin-4-yl)propyl)piperidin-1-yl)-1-oxoisoindolin-2-yl)piperidine-2,6-dione], for which the IC50 with Mino cells (Homo sapiens, MINO) is 1000 to 10000 nM; in the assay with JeKo-1 cells (Homo sapiens) it was greater than 10 µM. This compound gave a Dmax at BTK greater than 75%. In addition, the DC50 on BTK (setting [1]) lay in the range of 10 to 50 nM.
In the case of `NC(=O)c1c(-c2ccc(Oc3ccccc3)cc2)nn2c1NCCC2C1CCN(C2CCN(C(=O)N3CCN(Cc4ccc5c(c4)C(=O)N(C4CCC(=O)NC4=O)C5=O)CC3)CC2)CC1` (stereo not shown) [Compound 339, 7-(1′-(4-((2-(2,6-dioxopiperidin-3-yl)-1,3-dioxoisoindolin-5-yl)methyl)piperazine-1-carbonyl)-[1,4′-bipiperidin]-4-yl)-2-(4-phenoxyphenyl)-4,5,6,7-tetrahydropyrazolo[1,5-a]pyrimidine-3-carboxamide], the IC50 with Mino cells (Homo sapiens, MINO) was greater than 10000 nM; in the assay with JeKo-1 cells (Homo sapiens) it was greater than 10 µM. In addition, the greatest degradation seen (Dmax) on BTK is greater than 50%. For the same compound, the DC50 at BTK (setting [1]) is greater than 50 nM.
For the compound `Nc1ncnc2c1c(-c1ccc(Oc3ccccc3)cc1)nn2C1CCN(CCN2CC(CN3CCN(c4ccc5c(c4)C(=O)N(C4CCC(=O)NC4=O)C5=O)CC3)C2)CC1` (stereo not shown) [Compound 461, 5-(4-((1-(2-(4-(4-amino-3-(4-phenoxyphenyl)-1H-pyrazolo[3,4-d]pyrimidin-1-yl)piperidin-1-yl)ethyl)azetidin-3-yl)methyl)piperazin-1-yl)-2-(2,6-dioxopiperidin-3-yl)isoindoline-1,3-dione], the IC50 in the assay with Mino cells (Homo sapiens, MINO) is less than 1000 nM; with JeKo-1 cells (Homo sapiens), less than 1 µM. In addition, the DC50 on BTK (setting [2]) was less than 10 nM. Besides, on BTK (setting [3]), the Dmax was greater than 90%.
In the case of `NC(=O)c1c(-c2ccc(Oc3ccccc3)cc2)nn2c1NCC[C@H]2C1CCN(C2CCN(C(=O)N3CCN(c4ccc5c(c4)CN(C4CCC(=O)NC4=O)C5=O)CC3)CC2)CC1` (stereo partly drawn) [Compound 378, (7S)-7-(1′-(4-(2-(2,6-dioxopiperidin-3-yl)-1-oxoisoindolin-5-yl)piperazine-1-carbonyl)-[1,4′-bipiperidin]-4-yl)-2-(4-phenoxyphenyl)-4,5,6,7-tetrahydropyrazolo[1,5-a]pyrimidine-3-carboxamide], the IC50 in the assay on Mino cells (Homo sapiens, MINO) is greater than 10000 nM; with JeKo-1 cells (Homo sapiens), greater than 10 µM. Further, the Dmax at BTK was greater than 50%. For the same compound, at BTK (setting [1]), the DC50 was greater than 50 nM.
Regarding `NC(=O)c1c(-c2ccc(Oc3ccccc3)cc2)nn2c1NCC[C@H]2C1CCN(CC2CCN(C(=O)N3CCC(CN4CCN(c5ccc6c(c5)CN(C5CCC(=O)NC5=O)C6=O)CC4)CC3)CC2)CC1` (stereo partly drawn) [Compound 410, (7S)-7-(1-((1-(4-((4-(2-(2,6-dioxopiperidin-3-yl)-1-oxoisoindolin-5-yl)piperazin-1-yl)methyl)piperidine-1-carbonyl)piperidin-4-yl)methyl)piperidin-4-yl)-2-(4-phenoxyphenyl)-4,5,6,7-tetrahydropyrazolo[1,5-a]pyrimidine-3-carboxamide], the IC50 in the assay on Mino cells (Homo sapiens, MINO) fell in the range of 1000 to 10000 nM; in the assay with JeKo-1 cells (Homo sapiens), 1 to 10 µM. Also, the DC50 on BTK (setting [2]) is less than 10 nM. Also, the maximal degradation (Dmax) at BTK (setting [3]) is greater than 90%.
Turning to `Nc1ncnc2c1c(-c1ccc(Oc3ccccc3)cc1)cn2C1CCN(CCN2CC(N3CCN(c4ccc5c(c4)CN(C4CCC(=O)NC4=O)C5=O)CC3)C2)CC1` (stereo not shown) [Compound 464, 3-(5-(4-(1-(2-(4-(4-amino-5-(4-phenoxyphenyl)-7H-pyrrolo[2,3-d]pyrimidin-7-yl)piperidin-1-yl)ethyl)azetidin-3-yl)piperazin-1-yl)-1-oxoisoindolin-2-yl)piperidine-2,6-dione], the IC50 in the assay with Mino cells (Homo sapiens, MINO) lay in the range of 1000 to 10000 nM; in the assay on JeKo-1 cells (Homo sapiens), 1 to 10 µM. The DC50 on BTK (setting [2]) fell in the range of 10 to 50 nM. Besides, the Dmax at BTK (setting [3]) was greater than 75%.
On to `Nc1ncnc2c1c(-c1ccc(Oc3ccccc3)cc1)nn2C1CCN(C2CCN(C(=O)N3CCC(CCCN4CCN(c5ccc6c(c5)C(=O)N(C5CCC(=O)NC5=O)C6=O)CC4)CC3)CC2)CC1` (stereo not shown) [Compound 263, 5-(4-(3-(1-(4-(4-amino-3-(4-phenoxyphenyl)-1H-pyrazolo[3,4-d]pyrimidin-1-yl)-[1,4′-bipiperidine]-1′-carbonyl)piperidin-4-yl)propyl)piperazin-1-yl)-2-(2,6-dioxopiperidin-3-yl)isoindoline-1,3-dione], for which the IC50 with Mino cells (Homo sapiens, MINO) is 1000 to 10000 nM; with JeKo-1 cells (Homo sapiens), greater than 10 µM. Further, the maximal degradation (Dmax) on BTK is greater than 90%. Further, the half-maximal degradation concentration (DC50) at BTK (setting [1]) was 10 to 50 nM.
`Nc1ncnc2c1c(-c1ccc(Oc3ccccc3)cc1)nn2C1CCN(CC2CCN(CC3CN(c4ccc5c(c4)C(=O)N(C4CCC(=O)NC4=O)C5=O)C3)CC2)CC1` (stereo not shown) [Compound 429, 5-(3-((4-((4-(4-amino-3-(4-phenoxyphenyl)-1H-pyrazolo(3,4-d)pyrimidin-1-yl)piperidin-1-yl)methyl)piperidin-1-yl)methyl)azetidin-1-yl)-2-(2,6-dioxopiperidin-3-yl)isoindoline-1,3-dione]: the IC50 is less than 1000 nM in the assay with Mino cells (Homo sapiens, MINO) and 1 to 10 µM in the assay on JeKo-1 cells (Homo sapiens). The DC50 on BTK (setting [2]) lay in the range of 10 to 50 nM. At BTK (setting [3]), the Dmax is greater than 90%.
On to `Nc1ncnc2c1c(-c1ccc(Oc3ccccc3)cc1)nn2C1CCN(C2CCN(CC3CCN(c4ccc5c(c4)CN(C4CCC(=O)NC4=O)C5=O)CC3)C2)CC1` (stereo not shown) [Compound 450, 3-(5-(4-((3-(4-(4-amino-3-(4-phenoxyphenyl)-1H-pyrazolo[3,4-d]pyrimidin-1-yl)piperidin-1-yl)pyrrolidin-1-yl)methyl)piperidin-1-yl)-1-oxoisoindolin-2-yl)piperidine-2,6-dione], for which the IC50 in the assay on Mino cells (Homo sapiens, MINO) fell in the range of 1000 to 10000 nM; in the assay on JeKo-1 cells (Homo sapiens), 1 to 10 µM. Moreover, the DC50 on BTK (setting [2]) was 10 to 50 nM. For the same compound, at BTK (setting [3]), the greatest degradation seen (Dmax) was greater than 75%.
As to `Nc1ncnc2c1c(-c1ccc(Oc3ccccc3)cc1)nn2C1CCN(C(=O)N2CC(N3CCN(c4ccc5c(c4)C(=O)N([C@H]4CCC(=O)NC4=O)C5=O)CC3)C2)CC1` [Compound 483, (S)-5-(4-(1-(4-(4-amino-3-(4-phenoxyphenyl)-1H-pyrazolo[3,4-b]pyrimidin-1-yl)piperidine-1-carbonyl)azetidin-3-yl)piperazin-1-yl)-2-(2,6-dioxopiperidin-3-yl)isoindoline-1,3-dione], the IC50 in the assay with Mino cells (Homo sapiens, MINO) is less than 1000 nM; with JeKo-1 cells (Homo sapiens) it was 1 to 10 µM. At BTK (setting [2]), the DC50 is less than 10 nM. Besides, on BTK (setting [3]), the greatest degradation seen (Dmax) was greater than 90%.
As to `Nc1ncnc2c1c(-c1ccc(Oc3ccccc3)cc1)nn2C1CCC(C(=O)N2CC(N3CCN(c4ccc5c(c4)C(=O)N(C4CCC(=O)NC4=O)C5=O)CC3)C2)CC1` (stereo not shown) [Compound 511, 5-(4-(1-(4-(4-amino-3-(4-phenoxyphenyl)-1H-pyrazolo[3,4-d]pyrimidin-1-yl)cyclohexane-1-carbonyl)-152-zetidine-3-yl)piperazin-1-yl)-2-(2,6-dioxopiperidin-3-yl)isoindoline-1,3-dione], the IC50 in the assay with Mino cells is less than 1000 nM; with JeKo-1 cells it was less than 1 µM. In addition, the “Dmax (BTK degradation)” value on BTK (cell line not given) is “A (A >90%)”. Also, the DC50 at BTK (setting [2]) is less than 10 nM.
`Nc1ncnc2c1c(-c1ccc(Oc3ccccc3)cc1)nn2C1CCN(C2CCN(C(=O)N3CCC(CN4CCC(c5ccc6c(c5)CN(C5CCC(=O)NC5=O)C6=O)CC4)CC3)CC2)CC1` (stereo not shown) [Compound 244, 3-(5-(1-((1-(4-(4-amino-3-(4-phenoxyphenyl)-1H-pyrazolo[3,4-d]pyrimidin-1-yl)-[1,4′-bipiperidine]-1′-carbonyl)piperidin-4-yl)methyl)piperidin-4-yl)-1-oxoisoindolin-2-yl)piperidine-2,6-dione]: the IC50 with Mino cells (Homo sapiens, MINO) was in the range of 1000 to 10000 nM; in the assay with JeKo-1 cells (Homo sapiens), 1 to 10 µM. For the same compound, on BTK, the Dmax was greater than 90%. The compound also came in with a half-maximal degradation concentration (DC50) at BTK (setting [1]) of less than 10 nM.
For the compound `NC(=O)c1c(-c2ccc(Oc3ccccc3)cc2)nn2c1NCC[C@H]2C1CCN(C2CCN(C(=O)N3CCN(C4CCN(c5ccc6c(c5)CN(C5CCC(=O)NC5=O)C6=O)CC4)CC3)CC2)CC1` (stereo partly drawn) [Compound 386, (7S)-7-(1′-(4-(1-(2-(2,6-dioxopiperidin-3-yl)-1-oxoisoindolin-5-yl)piperidin-4-yl)piperazine-1-carbonyl)-[1,4′-bipiperidin]-4-yl)-2-(4-phenoxyphenyl)-4,5,6,7-tetrahydropyrazolo[1,5-a]pyrimidine-3-carboxamide], the IC50 with Mino cells (Homo sapiens, MINO) was less than 1000 nM; in the assay on JeKo-1 cells (Homo sapiens) it was less than 1 µM. Further, on BTK, the Dmax is greater than 90%. The half-maximal degradation concentration (DC50) on BTK (setting [1]) is less than 10 nM.
For the compound `Nc1ncnc2c1c(-c1ccc(Oc3ccccc3)cc1)nn2C1CCN(C2CCN(CC3CN(c4ccc5c(c4)C(=O)N(C4CCC(=O)NC4=O)C5=O)C3)CC2)CC1` (stereo not shown) [Compound 433, 5-(3-((4-(4-amino-3-(4-phenoxyphenyl)-1H-pyrazolo(3,4-d)pyrimidin-1-yl)-(1,4′-bipiperidin)-1′-yl)methyl)azetidin-1-yl)-2-(2,6-dioxopiperidin-3-yl)isoindoline-1,3-dione], the IC50 in the assay on Mino cells (Homo sapiens, MINO) was less than 1000 nM; with JeKo-1 cells (Homo sapiens), 1 to 10 µM. For the same compound, on BTK (Namalwa B lymphocyte cells, various concentrations, 24 hours, Western blot), the “degradation of BTK protein” value is “dose-dependent degradation”. Moreover, the DC50 at BTK (setting [2]) was greater than 50 nM. For the same compound, at BTK (setting [3]), the Dmax was greater than 90%.
In the case of `Nc1ncnc2c1c(-c1ccc(Oc3ccccc3)cc1)nn2C1CCN(CCN2CCC(N3CCN(c4ccc5c(c4)C(=O)N(C4CCC(=O)NC4=O)C5=O)CC3)C2)CC1` (stereo not shown) [Compound 459, 5-(4-(1-(2-(4-(4-amino-3-(4-phenoxyphenyl)-1H-pyrazolo(3,4-d)pyrimidin-1-yl)piperidin-1-yl)ethyl)pyrrolidin-3-yl)piperazin-1-yl)-2-(2,6-dioxopiperidin-3-yl)isoindoline-1,3-dione], the IC50 in the assay with Mino cells (Homo sapiens) was less than 1000 nM; in the assay with JeKo-1 cells (Homo sapiens) it was less than 1 µM. At BTK (setting [2]), the 50% degradation concentration (DC50) is less than 10 nM. In addition, the Dmax at BTK (setting [3]) was greater than 90%.

The values are drawn from US12139492B2 (Endotarget Inc., priority 2021, dated 2024).
